Test results published in patent publication US20110053897A1 (IRM LLC, priority 2009, published 2011).
Where two headings read alike, the source gives them in different places.

Target: T1, Syk kinase (Homo sapiens, UniProt P43405)
T1 construct: purchased
Experiment: Syk kinase inhibition, Caliper LabChip off-chip mobility-shift kinase assay
Assay type: biochemical
Settings: read-out: Syk Enzyme IC50
Experimental: Compounds of the examples and Table 1 provided herein were assayed to measure their capacity to inhibit Syk kinase.
Compounds of the examples and Table 1 provided herein were assessed for their ability to inhibit Syk kinase by utilizing Caliper Life Sciences' proprietary LabChip™ technology. The off-chip incubation mobility-shift kinase assay uses a microfluidic chip to measure the conversion of a fluorescent peptide substrate to a phosphorylated product. The reaction mixture, from a microtiter plate well, is introduced through a capillary sipper onto the chip, where the nonphosphorylated substrate and phosphorylated product are separated by electrophoresis and detected via laser induced fluorescence. […] The phosphorylated product migrates through the chip faster than the non-phosphorylated substrate, and signals from the two forms of the peptide appear as distinct peaks. Caliper's data analysis software (HTSWA) determines peak heights, from which the ratio of product to the peak sum P/(P+S) and percent (%) conversion is calculated. This value is used to compare compound wells to control wells present on the plate, and thereby determine the % inhibition values for the compound. The formula used to calculate % inhibition is as follows, where C100% is the average % conversion of the 100% activity wells and Co% is the average % conversion of the 0% activity wells: (1−(% conversionofsample−C0%)/(C100%−C0%))*100.
Compounds (10 mM stocks in 100% DMSO) are diluted to a final concentration of 5 μM for single point inhibition experiments, and a series dilution of 10, 3, 1, 0.3, 0.1, 0.03, 0.01, 0.003, 0.001, 0.0003, 0.0001, and 0.00003 μM were made for IC50 determination. Generally, 12 μL of enzyme buffer containing purified kinase (various amount; various suppliers), 100 mM HEPES, pH 7.5, 1 mM DTT (Calbiochem, 2333153), 10 mM MgCl2 (Sigma, M-1028) or 10 mM MnCl2 (Sigma, M-1787) (assay specific), and 0.002% Brij-35 (Sigma, B4184) are added to each well. Compound and enzyme are allowed to pre-incubate for 15 minutes. 12 μL of peptide/ATP buffer containing 100 mM HEPES, pH 7.5, 1.5 μM fluorescein-labeled peptide (specific to kinase of interest), ATP (at KM apparent, Sigma, A9187), and 0.002% Brij-35 is then added to each well to initiate the reaction. The final concentration of DMSO in the well is 4%. Generally, reactions are incubated for 1 to 1.5 hours at room temperature to obtain adequate conversion of peptide to phosphorylated product in the linear range of the reaction. Reactions are terminated with the addition of 45 μL of Stop Buffer (containing 20 mM EDTA). Plates are then read on the LabChip 3000 using a 12-sipper LabChip. % conversion values and % inhibition values are obtained as provided and IC50 curves of compounds are generated using GraphPad Prism Version 4 or 5.01, or XLfit Version 4.3.2. When using GraphPad Prism, a nonlinear curve fit using the sigmoidal dose response—variable slope fit was used to graph IC50 curves and determine IC50 values and hillslopes. When using XLfit, Fit Model 205 (4-Parameter Logistic Model) is used to generate and fit the IC50 curve.

SMILES | IC50 | IC50 (Caliper LabChip assay)
Cc1ccc(-c2cc3cc[nH]c(=O)c3c(Nc3ccc(C4CNC4)cc3)n2)cn1 [compound 131] | 111 nM | –
Cc1ccc(-c2cc3cc[nH]c(=O)c3c(Nc3ccc(C4CN(C)C4)cc3)n2)cn1 [compound 140] | 27 nM | –
CCn1ccc2cc(Nc3cc(C)ccn3)nc(N[C@H]3CCCC[C@@H]3O)c2c1=O (racemic) [compound 406] | 476 nM | –
COc1nc(-c2cc3cc[nH]c(=O)c3c(Nc3ccc(C4CCN(CCC#N)CC4)c(C)c3)n2)cnc1N [compound 169] | 29 nM | –
CCn1ccc2cc(Nc3cc(C)ccn3)nc(NC(C)C)c2c1=O [compound 191] | 187 nM | –
CCN1CCN(CCc2ccc(Nc3nc(-c4cnn(C)c4)cc4cc[nH]c(=O)c34)cc2)CC1 [compound 441] | 58 nM | –
Cc1cc(C)nc(Nc2cc3cc[nH]c(=O)c3c(Nc3ccc(C4CCN(C5CC5)CC4)c(C)c3)n2)c1 [compound 256] | 141 nM | –
CO/N=C(\C)c1cc2cc[nH]c(=O)c2c(Nc2ccc(N3CCO[C@H](C)C3)c(C)c2)n1 [compound 234] | 1310 nM | –
Cc1ccnc(Nc2cc3cc[nH]c(=O)c3c(N3CCOCC3)n2)c1 [compound 272] | 278 nM | –
Cn1ccc2cc(Nc3cnccn3)nc(N[C@H]3CC[C@H](O)CC3)c2c1=O [compound 358] | 49 nM | –
CC(C)(C)Nc1nc(-c2cnc(N)nc2)cc2cc[nH]c(=O)c12 [compound 455] | 59 nM | –
COc1cncc(-c2cc3cc[nH]c(=O)c3c(Nc3ccc(C4CCN(CCN(C)C)CC4)c(C)c3)n2)n1 [compound 63] | 33 nM | –
COCCN1CCC(c2ccc(Nc3nc(-c4ccc(C)nc4)cc4cc[nH]c(=O)c34)cc2C)CC1 [compound 47] | 12 nM | –
CO/N=C(\C)c1cc2cc[nH]c(=O)c2c(Nc2ccc(C3CCN(C4CC4)CC3)c(C)c2)n1 [compound 237] | 407 nM | –
CCC(C(=O)OC)N1CCC(c2ccc(Nc3nc(-c4cncc(OC)n4)cc4cc[nH]c(=O)c34)cc2C)CC1 (centres unmarked) [compound 118] | 346 nM | –
COc1cncc(-c2cc3cc[nH]c(=O)c3c(Nc3ccc(C4CCN(CCF)CC4)c(C)c3)n2)n1 [compound 79] | 27 nM | –
CCC(C)Nc1nc(Nc2ccc(F)cn2)cc2cc[nH]c(=O)c12 (centres unmarked) [compound 264] | 423 nM | –
Cc1ccnc(Nc2cc3cc[nH]c(=O)c3c(N3CC[C@@H](CO)C3)n2)c1 [compound 399] | 998 nM | –
COc1cncc(-c2cc3cc[nH]c(=O)c3c(Nc3ccc(CCN4CCN(CCC#N)CC4)cc3)n2)n1 [compound 66] | 55 nM | –
CCN1CCN(c2n[nH]c3cc(Nc4nc(-c5ccc(C)nc5)cc5cc[nH]c(=O)c45)ccc23)CC1 [compound 200] | 56 nM | –
CC(C)C(C)Nc1nc(Nc2ccccn2)cc2cc[nH]c(=O)c12 (centres unmarked) [compound 278] | 2210 nM | –
Cc1ccnc(Nc2cc3ccn(CCN(C)C)c(=O)c3c(N[C@H]3CC[C@@H](O)CC3)n2)c1 [compound 386] | 49 nM | –
O=c1[nH]ccc2cc(-c3cncnc3)nc(Nc3ccc([C@H]4CC[C@@H](N5CCOCC5)CC4)cc3)c12 [compound 10] | 266 nM | –
COc1cncc(-c2cc3cc[nH]c(=O)c3c(Nc3ccc(C4CCN(CC(O)CO)CC4)c(C)c3)n2)n1 (centres unmarked) [compound 166] | 3 nM | –
COc1cncc(-c2cc3cc[nH]c(=O)c3c(Nc3ccc(C4CCN(CC5CC5)CC4)c(C)c3)n2)n1 [compound 81] | 4 nM | –
COc1cncc(-c2cc3cc[nH]c(=O)c3c(Nc3ccc(C4CCN(CCO)CC4)c(C)c3)n2)n1 [compound 143] | 5 nM | –
Cc1ccnc(Nc2cc3ccn(C)c(=O)c3c(Nc3ccc(C(N)=O)cc3)n2)c1 [compound 483] | 62 nM | –
CC(C)CC(C)Nc1nc(Nc2ccccn2)cc2cc[nH]c(=O)c12 (centres unmarked) [compound 275] | 3200 nM | –

Second part, the compound after the results:

IC50 | IC50 (Caliper LabChip assay) | SMILES
– | 756 nM | CC(C)(C)Nc1nc(Nc2cc(C3CCCCO3)ncn2)cc2ccn(CCO)c(=O)c12 (centres unmarked) [compound 626]
803 nM | – | O=c1[nH]ccc2cc(Nc3ccc(Cl)cn3)nc(Nc3ccc(N4CCOCC4)cc3)c12 [compound 526]
– | 155 nM | CC1(Nc2nc(Nc3cc(C(C)(C)O)ccn3)cc3ccn(CC(N)=O)c(=O)c23)CCC1 [compound 722]
– | 108 nM | CC(C)(C)Nc1nc(Nc2cc(C(C)(C)O)ccn2)cc2ccn(CC(N)=O)c(=O)c12 [compound 726]
– | 74 nM | C[C@@H](CO)Nc1nc(Nc2cnccn2)cc2ccn(CCF)c(=O)c12 [compound 1000]
– | 1020 nM | CC(C)(C)Nc1nc(Nc2nccs2)cc2ccn(CCO)c(=O)c12 [compound 692]
– | 39 nM | Cc1ccnc(Nc2cc3ccn(C(C)C)c(=O)c3c(N[C@H]3CC[C@@H](O)CC3)n2)c1 [compound 943]
– | 29 nM | Cc1ccnc(Nc2cc3ccn(C(C)C)c(=O)c3c(N[C@@H](C)CO)n2)c1 [compound 966]
– | 110 nM | CCn1ccc2cc(Nc3cnccn3)nc(NCC(F)(F)F)c2c1=O [compound 1044]
– | 579 nM | CC(C)(C)Nc1nc(Nc2cc(C(C)(C)C(N)=O)ccn2)cc2ccn(CCO)c(=O)c12 [compound 862]
– | 25 nM | CC1(Nc2nc(-c3cnc(N)nc3)cc3ccn(CC4(CO)COC4)c(=O)c23)CCC1 [compound 933]
– | 8 nM | CC(C)(C)Nc1nc(-c2cnc(N)nc2)cc2ccn(C[C@H](O)CO)c(=O)c12 [compound 935]
69 nM | – | Cc1ccnc(Nc2cc3ccn(C)c(=O)c3c(Nc3ccc(C(=O)N4CCOCC4)cc3)n2)c1 [compound 500]
701 nM | – | Cc1ccnc(Nc2cc3ccn(C)c(=O)c3c(Nc3cc(C)ccn3)n2)c1 [compound 569]
– | 46 nM | C=Cc1ccnc(Nc2cc3ccn(CCO)c(=O)c3c(NC(C)(C)C)n2)c1 [compound 858]
120 nM | – | COCCNc1nc(Nc2cc(C)ccn2)cc2cc[nH]c(=O)c12 [compound 527]
– | 18 nM | Nc1ncc(-c2cc3ccn(C[C@H](O)CO)c(=O)c3c(NC3CCCC3)n2)cn1 [compound 776]

IC50 | IC50 (Caliper LabChip assay) | SMILES
– | 376 nM | CCn1ccc2cc(Nc3cnccn3)nc(NC3CC=C(C)CC3)c2c1=O (centres unmarked) [compound 955]
– | 643 nM | CC(C)(C)Nc1nc(Nc2cc(C(=O)O)ccn2)cc2ccn(CCO)c(=O)c12 [compound 680]
803 nM | – | CCNc1nc(Nc2cc(C)ccn2)cc2cc[nH]c(=O)c12 [compound 566]
– | 29 nM | CCn1ccc2cc(-c3cnc(N)nc3)nc(NC3(C)CCC3)c2c1=O [compound 906]
152 nM | – | Cc1ccnc(Nc2cc3cc[nH]c(=O)c3c(NCC(F)(F)F)n2)c1 [compound 516]
– | < 1.27 nM | CC(C)(C)Nc1nc(Nc2cc(C(F)(F)CO)ccn2)cc2ccn(CCO)c(=O)c12 [compound 871]
– | 53 nM | CCn1ccc2cc(Nc3cc(C)ccn3)nc(NC3CCC(C)(O)CC3)c2c1=O (centres unmarked) [compound 950]
– | 203 nM | Cc1ccnc(Nc2cc3ccn(CCO)c(=O)c3c(NC3CCS(=O)(=O)C3)n2)c1 (centres unmarked) [compound 974]
– | 10 nM | CC(C)(C)Nc1nc(Nc2cnccn2)cc2ccn(CCC(N)=O)c(=O)c12 [compound 661]
– | 46 nM | CCn1ccc2cc(-c3cnc(N)nc3)nc(N[C@H]3CC[C@H](O)CC3)c2c1=O [compound 1032]
– | 117 nM | CC(C)(C)Nc1nc(Nc2cc(-c3cn[nH]c3)ccn2)cc2ccn(CCO)c(=O)c12 [compound 840]
– | 453 nM | CC(C)(C)Nc1nc(Nc2cc(C(O)CN)ccn2)cc2ccn(CCO)c(=O)c12 (centres unmarked) [compound 612, 6-(4-(2-amino-1-hydroxyethyl)pyridin-2-ylamino)-8-(tert-butylamino)-2-(2-hydroxyethyl)-2,7-naphthyridin-1(2H)-one]
– | 13 nM | CC(C(N)=O)n1ccc2cc(Nc3cnccn3)nc(NC(C)(C)C)c2c1=O (centres unmarked) [compound 660]
– | 238 nM | CC(C)(C)Nc1nc(Nc2cnccn2)cc2ccn(CC(=O)N3CCOCC3)c(=O)c12 [compound 1008]
– | 48 nM | CC(C)(C)Nc1nc(Nc2cc(OCC3CCOC3)ncn2)cc2ccn(CC(O)CO)c(=O)c12 (centres unmarked) [compound 887]
– | 236 nM | [2H]C([2H])([2H])n1ccc2cc(Nc3cc(Cl)ccn3)nc(NC[C@@H]3CCCO3)c2c1=O [compound 1052]
– | 158 nM | CCn1ccc2cc(Nc3cc(C)ccn3)nc(N[C@H](CO)C(C)C)c2c1=O [compound 1041]
